Values quoted from earlier work, collected in US20100150991A1, “Combination Wound Therapy” (priority 2008, published 2010).

What was measured:
acute and chronic wounds = conditions: topical CO2, acute and chronic wounds; Wollina et al 2004
[1] = CO2 insufflation compared with air insufflation; van der Linden and Persson 2003
[2] = topical application of gaseous nitric oxide
[3] = tested on: neutrophil adhesion, platelets, and pro-inflammatory cutokines in the circulating blood; conditions: doses of less than 80 ppm; by reducing neutrophil adhesion, platelets and pro-inflammatory cytokines in circulating blood

| SMILES | clinical evidence in wounds (acute and chronic wounds) | rates of infection [1] | half life of NO in contact with tissues [2] | anti-inflammatory effect [3] |
| --- | --- | --- | --- | --- |
| O=C=O [CO2, carbon dioxide] | increased granulation tissue and reduction of discharge and malodor | lower rates of infection than air insufflation |  |  |
| [N]=O [NO, nitric oxide] |  |  | 6 min | anti-inflammatory effect |
